Laboratory results as given in PubChem BioAssay AID192 (DTP/NCI, 2004).
Where “and” joins values, the source holds several entries; their conditions need not be identical. Equal values may be shown once. Toxic doses and inconclusive results are not listed.

System: BDF1 mice, B16 melanoma ip, median survival T/C
Test: NCI In Vivo Anticancer Drug Screen. Data for tumor model B16 Melanoma (intraperitoneal) in B6D2F1 (BDF1) mice
Conditions: endpoint: median survival time, higher = longer survival
Procedure, shortened: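 Read-out: survival or tumor size, given as treated/control ratio. Controls received vehicle only; animals bore transplantable tumors.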

[1] = dose: 50.0 mg/kg/injection, schedule: Q01DX009 (ip), vehicle: Klucel (hydroxypropylcellulose) (HPC)
[2] = dose: 100.0 mg/kg/injection, schedule: Q01DX009 (ip), vehicle: Klucel (hydroxypropylcellulose) (HPC)
[3] = dose: 200.0 mg/kg/injection, schedule: Q01DX009 (ip), vehicle: Klucel (hydroxypropylcellulose) (HPC)
[4] = dose: 25.0 mg/kg/injection, schedule: Q01DX009 (ip), vehicle: Klucel (hydroxypropylcellulose) (HPC)
[5] = dose: 400.0 mg/kg/injection, schedule: Q01DX009 (ip), vehicle: Klucel (hydroxypropylcellulose) (HPC)
[6] = dose: 12.5 mg/kg/injection, schedule: Q01DX009 (ip), vehicle: saline with Tween-80
[7] = dose: 50.0 mg/kg/injection, schedule: Q01DX009 (ip), vehicle: saline with Tween-80
[8] = dose: 100.0 mg/kg/injection, schedule: Q01DX009 (ip), vehicle: saline with Tween-80
[9] = dose: 50.0 mg/kg/injection, schedule: Q01DX009 (ip), vehicle: saline
[10] = dose: 100.0 mg/kg/injection, schedule: Q01DX009 (ip), vehicle: saline
[11] = dose: 3.12 mg/kg/injection, schedule: Q01DX009 (ip), vehicle: saline
[12] = dose: 6.25 mg/kg/injection, schedule: Q01DX009 (ip), vehicle: saline
[13] = dose: 12.5 mg/kg/injection, schedule: Q01DX009 (ip), vehicle: saline
[14] = dose: 25.0 mg/kg/injection, schedule: Q01DX009 (ip), vehicle: saline
[15] = dose: 100.0 mg/kg/injection, schedule: Q04DX003 (ip), vehicle: Klucel (hydroxypropylcellulose) (HPC)
[16] = dose: 200.0 mg/kg/injection, schedule: Q04DX003 (ip), vehicle: Klucel (hydroxypropylcellulose) (HPC)
[17] = dose: 400.0 mg/kg/injection, schedule: Q04DX003 (ip), vehicle: Klucel (hydroxypropylcellulose) (HPC)

## CC(=O)CC(C)=O.CC(=O)CC(C)=O.CC(=O)CC(C)=O.[Cr]
[1]
  T/C: 96 % of control
[2]
  T/C: 97 % of control
[3]
  T/C: 90 % of control

## CCCC(OC(C)=O)C(Cl)(Cl)Cl (stereo not drawn)
[4]
  T/C: 90 % of control
[1]
  T/C: 100 % of control

## C=CCc1ccccc1C
[2]
  T/C: 104 % of control
[3]
  T/C: 105 % of control
[5]
  T/C: 90 % of control

## CN1C(=O)CCS(=O)(=O)C1c1ccc(Cl)cc1 (stereo not drawn)
dose: 0.13 mg/kg/injection, schedule: Q01DX009 (ip), vehicle: saline
  T/C: 109 % of control
dose: 0.25 mg/kg/injection, schedule: Q01DX009 (ip), vehicle: saline
  T/C: 101 % of control
dose: 0.38 mg/kg/injection, schedule: Q01DX009 (ip), vehicle: saline
  T/C: 95 % of control
dose: 0.39 mg/kg/injection, schedule: Q01DX009 (ip), vehicle: Klucel (hydroxypropylcellulose) (HPC)
  T/C: 100 % of control
dose: 0.5 mg/kg/injection, schedule: Q01DX009 (ip), vehicle: saline
  T/C: 111 % of control
dose: 0.75 mg/kg/injection, schedule: Q01DX009 (ip), vehicle: saline
  T/C: 98 % of control
dose: 1.0 mg/kg/injection, schedule: Q01DX009 (ip), vehicle: saline
  T/C: 115 % of control
dose: 1.5 mg/kg/injection, schedule: Q01DX009 (ip), vehicle: saline
  T/C: 101 % of control
dose: 1.56 mg/kg/injection, schedule: Q01DX009 (ip), vehicle: Klucel (hydroxypropylcellulose) (HPC)
  T/C: 109 % of control
dose: 2.0 mg/kg/injection, schedule: Q01DX009 (ip), vehicle: saline
  T/C: 104 % of control
dose: 3.0 mg/kg/injection, schedule: Q01DX009 (ip), vehicle: saline
  T/C: 104 % of control
dose: 3.12 mg/kg/injection, schedule: Q01DX009 (ip), vehicle: Klucel (hydroxypropylcellulose) (HPC)
  T/C: 100 % of control
dose: 6.25 mg/kg/injection, schedule: Q01DX009 (ip), vehicle: Klucel (hydroxypropylcellulose) (HPC)
  T/C: 102 % of control

## CC1(C)CC1(Br)Br
dose: 6.25 mg/kg/injection, schedule: Q01DX009 (ip), vehicle: saline with Tween-80
  T/C: 112 % of control
[6]
  T/C: 110 % of control
dose: 25.0 mg/kg/injection, schedule: Q01DX009 (ip), vehicle: saline with Tween-80
  T/C: 118 % of control
[7]
  T/C: 102 % of control
[8]
  T/C: 110 % of control

## CN(C)CCC#N
[9]
  T/C: 113 % of control and 122 % of control
[10]
  T/C: 110 % of control and 113 % of control
dose: 200.0 mg/kg/injection, schedule: Q01DX009 (ip), vehicle: saline
  T/C: 105 % of control and 122 % of control

## c1cc2cc3c(cc2c2c1CC1c4cc5c(cc4CCN1C2)OCO5)OCO3 (stereo not drawn)
[2]
  T/C: 89 % of control
[3]
  T/C: 86 % of control

## OCCOCCN1CCN(C(c2ccccc2)c2ccc(Cl)cc2)CC1 (stereo not drawn)
[11]
  T/C: 97 % of control
[12]
  T/C: 102 % of control
[13]
  T/C: 105 % of control
[14]
  T/C: 97 % of control
[9]
  T/C: 100 % of control
[10]
  T/C: 102 % of control

## CCC(CC)c1ccccn1
dose: 100.0 mg/kg/injection, schedule: Q01DX009 (ip), vehicle: carboxymethylcellulose (CMC)
  T/C: 101 % of control
dose: 200.0 mg/kg/injection, schedule: Q01DX009 (ip), vehicle: carboxymethylcellulose (CMC)
  T/C: 95 % of control

## CCC1(O)CC2CN(CCc3c([nH]c4ccccc34)C(C(=O)OC)(c3cc4c(cc3OC)N(C)C3C(O)(C(=O)NCCSSCCNC(=O)C5(O)C(O)C6(CC)C=CCN7CCC8(c9cc(C%10(C(=O)OC)CC%11CN(CCc%12c%10[nH]c%10ccccc%12%10)CC(O)(CC)C%11)c(OC)cc9N(C)C58)C76)C(O)C5(CC)C=CCN6CCC43C65)C2)C1 (stereo not drawn)
dose: 0.13 mg/kg/injection, schedule: Q04DX003 (ip), vehicle: saline
  T/C: 122 % of control
dose: 0.64 mg/kg/injection, schedule: Q01DX009 (ip), vehicle: saline
  T/C: 184 % of control
dose: 1.0 mg/kg/injection, schedule: Q04DX003 (ip), vehicle: saline
  T/C: 151 % of control
dose: 1.08 mg/kg/injection, schedule: Q01DX009 (ip), vehicle: saline
  T/C: 189 % of control
dose: 648.0 micrograms/kg/injection, schedule: Q04DX003 (ip), vehicle: saline
  T/C: 158 % of control and 181 % of control
dose: 1080.0 micrograms/kg/injection, schedule: Q04DX003 (ip), vehicle: saline
  T/C: 183 % of control and 203 % of control
dose: 1800.0 micrograms/kg/injection, schedule: Q04DX003 (ip), vehicle: saline
  T/C: 184 % of control and 203 % of control

## COC(=O)[CH](C[N+](=O)[O-])[Hg][Cl] (stereo not drawn)
dose: 3.2 mg/kg/injection, schedule: Q01DX009 (ip), vehicle: saline with Tween-80
  T/C: 95 % of control
[12]
  T/C: 102 % of control
dose: 6.3 mg/kg/injection, schedule: Q01DX009 (ip), vehicle: saline with Tween-80
  T/C: 91 % of control
[6]
  T/C: 89 % of control
[13]
  T/C: 93 % of control
dose: 12.5 mg/kg/injection, schedule: Q04DX003 (ip), vehicle: Klucel (hydroxypropylcellulose) (HPC)
  T/C: 94 % of control
[14]
  T/C: 89 % of control
dose: 25.0 mg/kg/injection, schedule: Q04DX003 (ip), vehicle: Klucel (hydroxypropylcellulose) (HPC)
  T/C: 92 % of control

## CN(C)N=Nc1ccc(S(N)(=O)=O)cc1
[4]
  T/C: 116 % of control
[1]
  T/C: 111 % of control
[2]
  T/C: 98 % of control

## Oc1ccccc1N=Cc1ccc(C=Nc2ccccc2O)cc1
dose: 133.0 mg/kg/injection, schedule: Q01DX009 (ip), vehicle: gum acacia
  T/C: 88 % of control
dose: 200.0 mg/kg/injection, schedule: Q01DX009 (ip), vehicle: gum acacia
  T/C: 99 % of control

## CCCCCCCCCCCCCCCCS(=O)(=O)c1ccc(NN)cc1
[1]
  T/C: 97 % of control
[3]
  T/C: 86 % of control and 88 % of control

## CC(C)C(NC(=O)OC(C)(C)C)C(=O)O (stereo not drawn)
[4]
  T/C: 123 % of control
[1]
  T/C: 101 % of control

## CC(=O)OCCN1CC1
[11]
  T/C: 109 % of control
[12]
  T/C: 103 % of control
[13]
  T/C: 100 % of control
[14]
  T/C: 95 % of control

## CS(=O)(=O)OCC1CCCCO1 (stereo not drawn)
[15]
  T/C: 92 % of control and 100 % of control
[16]
  T/C: 100 % of control
[17]
  T/C: 104 % of control and 108 % of control

## CCOP(=O)(O)CC(=O)NC(CC(=O)O)C(=O)O (stereo not drawn)
dose: 12.5 mg/kg/injection, schedule: Q01DX009 (ip), vehicle: Klucel (hydroxypropylcellulose) (HPC)
  T/C: 97 % of control
[4]
  T/C: 101 % of control
[1]
  T/C: 92 % of control
[2]
  T/C: 92 % of control
[3]
  T/C: 97 % of control
[5]
  T/C: 94 % of control

## CCOC(=O)NC(C(=O)OC)C(=O)OC
[15]
  T/C: 95 % of control
[3]
  T/C: 93 % of control
[16]
  T/C: 97 % of control
[5]
  T/C: 87 % of control
[17]
  T/C: 90 % of control

## O=[N+]([O-])/C=C\c1ccc2c(c1)OCO2
dose: 22.0 mg/kg/injection, schedule: Q01DX009 (ip), vehicle: Klucel (hydroxypropylcellulose) (HPC)
  T/C: 96 % of control
dose: 33.0 mg/kg/injection, schedule: Q01DX009 (ip), vehicle: Klucel (hydroxypropylcellulose) (HPC)
  T/C: 108 % of control
[1]
  T/C: 96 % of control
dose: 75.0 mg/kg/injection, schedule: Q01DX009 (ip), vehicle: Klucel (hydroxypropylcellulose) (HPC)
  T/C: 100 % of control

## Cc1c(Cl)cccc1NS(=O)(=O)c1ccc(Cl)cc1
[4]
  T/C: 106 % of control
[1]
  T/C: 97 % of control
[2]
  T/C: 99 % of control

## CN1CCC=C(CN2c3ccccc3Sc3ccc(Cl)cc32)C1
[13]
  T/C: 95 % of control
[14]
  T/C: 94 % of control

## CCCC(NC(=O)C(C)Br)C(=O)O (stereo not drawn)
[7]
  T/C: 101 % of control
[8]
  T/C: 87 % of control

## [Cl][Pt+2][Cl].[NH-]c1ccccc1[NH-]
dose: 0.63 mg/kg/injection, schedule: Q01DX009 (ip), vehicle: saline with Tween-80
  T/C: 117 % of control
dose: 1.25 mg/kg/injection, schedule: Q01DX009 (ip), vehicle: Klucel (hydroxypropylcellulose) (HPC)
  T/C: 100 % of control and 123 % of control
dose: 1.25 mg/kg/injection, schedule: Q01DX009 (ip), vehicle: saline with Tween-80
  T/C: 117 % of control
dose: 2.5 mg/kg/injection, schedule: Q01DX009 (ip), vehicle: Klucel (hydroxypropylcellulose) (HPC)
  T/C: 92 % of control
dose: 2.5 mg/kg/injection, schedule: Q01DX009 (ip), vehicle: saline with Tween-80
  T/C: 122 % of control
dose: 10.0 mg/kg/injection, schedule: Q01DX009 (ip), vehicle: saline with Tween-80
  T/C: 92 % of control
